Data on one substance can be found in patent US6274348A, “Methods for the preparation of positively charged proteins” (XOMA Corporation, priority 1997, dated 2001).

Test [1] deals with T1, rBPI(1-191)-IgG fusion protein (human BPI residues 1-191 fused to human IgG1 heavy chain hinge-CH2-CH3) (Homo sapiens, UniProt P01857+P17213).
T1 construct: an rBPI(1-191)-IgG fusion protein was added to the wells of a 96-well plate; made in house; host or cells: CHO-DG44
In words: direct 3H-heparin binding assay. To be noted: highest 3H heparin concentration tested 2.5 μM; protein at 100 pmol/well, one hour at 4° C. An excerpt: (§1) A direct ^3 H-heparin binding assay was utilized to analyze the comparative binding of rBPI(1-199) and rBPI-Ig fusions to heparin. The assay was based on the ability of a derivatized nylon membrane to bind proteins with high capacity. Such a membrane has been incorporated into the bottom of 96-well microtiter plates by Millipore Corp. (Bedford Mass.) (MULTISCREEN IP plates) and may be punched out of each well for scintillation counting.
(§2) To conduct the assay, rBPI(1-199) or an rBPI(1-191)-IgG fusion protein was added to the wells of a 96-well plate at a concentration of 100 pmol/well diluted with phosphate buffered saline (PBS), pH 7.4 nylon membrane. Upon absorption to the membrane, the wells were blocked with a blocking buffer comprising 0.1% bovine serum albumin (BSA) in PBS. Serial dilutions of ^3 H heparin (DuPont, NEN, Wilmington, Del.) were made from 4-5 μg/ml in the blocking buffer and incubated in the wells coated with either rBPI(1-199) and rBPI(1-191)-IgG for one hour at 4° C. After one hour, unbound heparin was aspirated and the wells were washed three times with blocking buffer, dried, and removed for quantitation of bound ^3 H-heparin by liquid scintillation counting.

Test [2] concerns the target T2, rBPI(1-199), first 199 N-terminal amino acids of mature human BPI (SEQ ID NOS: 1 and 2) (Homo sapiens, UniProt P17213).
T2 construct: made in house
T2 sequence (P17213 32-230): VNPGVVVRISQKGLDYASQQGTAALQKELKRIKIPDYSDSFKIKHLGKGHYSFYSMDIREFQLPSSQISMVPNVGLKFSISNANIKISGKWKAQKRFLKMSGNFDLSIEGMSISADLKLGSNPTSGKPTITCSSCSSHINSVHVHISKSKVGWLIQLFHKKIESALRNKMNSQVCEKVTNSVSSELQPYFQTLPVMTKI
Description: direct 3H-heparin binding assay. Particulars: protein adsorbed to nylon membrane at 100 pmol/well, 3H heparin dilutions, one hour at 4° C., PBS pH 7.4 with 0.1% BSA; read-out: apparent affinity (Kd) for heparin.
Text: as §1, §2

T1 sequence (P17213+P01857 fused): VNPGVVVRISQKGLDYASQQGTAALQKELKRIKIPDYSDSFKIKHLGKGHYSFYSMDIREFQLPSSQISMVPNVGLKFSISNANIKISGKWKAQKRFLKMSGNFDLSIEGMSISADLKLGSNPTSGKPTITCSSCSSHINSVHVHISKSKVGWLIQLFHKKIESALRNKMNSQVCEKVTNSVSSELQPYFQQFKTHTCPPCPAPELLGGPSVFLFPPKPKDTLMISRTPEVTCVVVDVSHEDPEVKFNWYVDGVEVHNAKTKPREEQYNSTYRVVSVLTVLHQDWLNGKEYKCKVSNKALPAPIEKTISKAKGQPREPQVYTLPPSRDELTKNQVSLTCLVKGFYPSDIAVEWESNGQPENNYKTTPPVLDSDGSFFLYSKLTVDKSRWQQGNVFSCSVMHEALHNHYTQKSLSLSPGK

In the case of heparin, in test [1], the “saturation of 3H heparin binding” value was “did not reach saturation”. In test [2], the Kd worked out at 114 ± 30 nM.
